# Results: US10160748B2 (AbbVie Inc., priority 2015, dated 2018)
# Biological target: TNFα trimer (Homo sapiens, UniProt P01375)
# Test: TNFα FP Competitive Binding Assay
# Conditions: FP binding assay; 20 nM TNFα trimer, 1 nM OregonGreen488 probe; read-out: TNF IC50
# How it was run: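 Compounds in 12-point 1:3 series, final top 100 μM (2.0% DMSO) or 338 μM (3.4% DMSO), displace 1 nM fluorescent probe from 20 nM TNFα trimer. After 18-24 h incubation plus 1 h rt equilibration, background-subtracted polarization measured and curves fitted with variable slope.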
# TNFα trimer, sequence (P01375 77-233 limits assumed): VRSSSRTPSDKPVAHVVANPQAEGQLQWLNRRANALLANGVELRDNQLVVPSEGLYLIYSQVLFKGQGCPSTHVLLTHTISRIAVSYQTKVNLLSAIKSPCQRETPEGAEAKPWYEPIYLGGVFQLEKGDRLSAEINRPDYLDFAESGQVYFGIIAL
row,IC50 [µM],SMILES
1,< 1,"Cn1c(=O)c2ccc(-c3cnc(N4CCN5C(=O)NC[C@@H]5C4)nc3)cc2n1Cc1cc(CO)ccc1OC(F)F [Example 16.1, (R)-7-(5-(1-(2-(difluoromethoxy)-5-(hydroxymethyl)benzyl)-2-methyl-3-oxo-2,3-dihydro-1H-indazol-6-yl)pyrimidin-2-yl)hexahydroimidazo[1,5-a]pyrazin-3(2H)-one]"
2,1 to 10,"Cc1ccc(OC(F)F)c(Cn2c3cc(-c4cnn5c([C@H](C)O)cnc5c4)ccc3c(=O)n2C)c1 (single isomer, unassigned) [Example 108]"
3,< 1,"C[C@@H]1CN(c2ncc(-c3ccc4c(=O)n(C)n(Cc5ccccc5OC(F)F)c4c3)cn2)CCN1C(=O)[C@@H](O)CO [Example 38, 1-(2-(Difluoromethoxy)benzyl)-6-(2-((R)-4-((S)-2,3-dihydroxypropanoyl)-3-methylpiperazin-1-yl)pyrimidin-5-yl)-2-methyl-1H-indazol-3(2H)-one]"
4,< 1,"Cc1ccc(Cl)c(Cn2c3nc(-c4cnc(N5CCN(C(=O)CO)C[C@H]5C)nc4)ccc3c(=O)n2C)c1 [Example 81, (R)-1-(2-Chloro-5-methylbenzyl)-6-(2-(4-(2-hydroxyacetyl)-2-methylpiperazin-1-yl)pyrimidin-5-yl)-2-methyl-1H-pyrazolo[3,4-b]pyridin-3(2H)-one]"
5,1 to 10,Cn1c(=O)c2ccc(-c3cnc(N4CCOCC4)nc3)cc2n1Cc1ccccc1C#N [Example 1.12]
6,> 10,Cn1c(=O)c2ccc(-c3cnc(N4CC[C@H](C(=O)O)C4)nc3)cc2n1Cc1ccccc1OC(F)F [Example 2.15]
7,1 to 10,Cn1c(=O)c2ccc(-c3cnc(NCCO)nc3)cc2n1Cc1ccccc1OC(F)F [Example 2.12]
8,> 10,Cn1c(=O)c2ccc(-c3cnc(N4CC5(CC5C(=O)O)C4)nc3)cc2n1Cc1ccccc1OC(F)F (stereo not shown) [Example 2.14]
9,< 1,Cn1c(=O)c2ccc(-c3cnc(NC4CCNC(=O)C4)nc3)cc2n1Cc1cc(CO)ccc1OC(F)F (stereo not shown) [Example 16.5]
10,1 to 10,"Cn1c(=O)c2ccc(-c3cnc(C(C)(C)O)nc3)cc2n1Cc1cn(Cc2ccnnc2)cc1C(F)(F)F [Example #128, 6-(2-(2-Hydroxypropan-2-yl)pyrimidin-5-yl)-2-methyl-1-((1-(pyridazin-4-ylmethyl)-4-(trifluoromethyl)-1H-pyrrol-3-yl)methyl)-1H-indazol-3(2H)-one]"
11,< 1,"CC(=O)N1CCN(c2ncc(-c3ccc4c(=O)n(C)n(Cc5ccc(C)cc5SC(F)F)c4c3)cn2)C[C@H]1C [Example 82, (R)-6-(2-(4-Acetyl-3-methylpiperazin-1-yl)pyrimidin-5-yl)-1-(2-((difluoromethyl)thio)-4-methylbenzyl)-2-methyl-H-indazol-3(2H)-one]"
12,< 1,"Cn1c(=O)c2ccc(-c3cnc(N4CCOC(C)(C)C4)nc3)cc2n1Cc1ccccc1OC(F)F [Example 2, 1-(2-(Difluoromethoxy)benzyl)-6-(2-(2,2-dimethylmorpholino)pyrimidin-5-yl)-2-methyl-1H-indazol-3(2H)-one]"
13,< 1,C[C@@H]1CN(c2ncc(-c3c(F)cc4c(=O)n(C)n(Cc5ccccc5OC(F)F)c4c3F)cn2)CCN1C(=O)CO [Example 46]
14,< 1,Cn1c(=O)c2ccc(-c3cnc(N4CCN5C(=O)NC[C@@H]5C4)nc3)cc2n1Cc1nc(CO)ccc1C(F)(F)F [Example 16.10]
15,< 1,Cn1c(=O)c2ccc(-c3cnc(C(C)(C)O)nc3)cc2n1Cc1cc([C@H]2CC[C@@H](C#N)C2)ccc1OC(F)F (racemic) [Example 97]
16,1 to 10,Cn1c(=O)c2ccc(-c3cnc(NC4CCCOC4)nc3)cc2n1Cc1ccccc1OC(F)F (stereo not shown) [Example 2.21]
17,< 1,Cc1ccc(OC(F)F)c(Cn2c3cc(-c4cnc(N5CCN6C(=O)OC[C@H]6C5)nc4)ccc3c(=O)n2C)c1 [Example 22.12]
18,< 1,C[C@@H]1CN(c2ncc(-c3ccc4c(=O)n(C)n(Cc5ccccc5Cl)c4c3)cn2)CCN1C(=O)CO [Example 24.8]
19,1 to 10,Cn1c(=O)c2ccc(-c3cnc(N4CC5(CC(C(=O)O)C5)C4)nc3)cc2n1Cc1ccccc1OC(F)F [Example 2.17]
